We go through 1 compound from PMC7033278, “A Nonpeptide Oxytocin Receptor Agonist for a Durable Relief of Inflammatory Pain” (Scientific Reports, 2020).

Where two headings read alike, the source gives them in different places.

The thermodynamic solubility is solubility found after equilibrating the solid with the medium. For orientation: inhibition means how much of the control response was suppressed. The IC50 is the midpoint of a concentration-inhibition curve. Read a high IC50 as lower potency. In general, EC50 refers to the concentration that produces a half-maximal response.

Series [1] can be described thus: thermodynamic solubility in PBS pH 7.4. The following applies: PBS buffer, read-out: thermodynamic water solubility (S). The class given is physicochemical. The method, then: Solubility of LIT-001 was determined from solution of about 1 mg of compound in 500 μl of PBS at pH 7.4. (Figs. 1, S1) The solution was stirred at room temperature for 24 h and centrifuged at 15.000 × g for 5 min. The supernatant was diluted with a mixture of acetonitrile and water and analyzed by HPLC with a diode detector (Gilson; Kinetex 2.6 μm C18 100 A 50 × 4.6 mm column). […] The lipophilicity (LogD7.4) of LIT-001 was measured using […] of a stock solution diluted with different concentrations of octanol and PBS to cover a LogP range from −2 to + 4.5 in a final volume of 1 ml. After stirring for 1 h at room temperature (≈ 20 °C), the samples were centrifuged and the different phases were analyzed by HPLC (Gilson; diode detector, Kinetex 2.6 μ C18 100 A 50 × 4.6 mm column).

In another series the target is T1, COX(2) (Homo sapiens, UniProt P35354).
T1 construct: Eurofins (contract assay)
Put plainly: enzyme inhibition. In kind it is biochemical. As to the method: (§1) In vitro profiling of LIT-001 was performed by Eurofins as described in the Eurofins SafetyScreen-Functional panel, 2018[31]. The hepatotoxicity of LIT-001 was studied with cryo-preserved mouse hepatocytes. After unfreezing (optiTHAW and optiINCUBATE media, Xenotech) and cell viability control, cells (2 × 10^6 cells/ml) were dispatched in 96 well microtiterplates. LIT-001 was added to reach a concentration 1 μM in the presence of 1 × 10^6 cells/mL in a volume of 100 μl/well. The incubation was stopped at 4, 20, 40, 80 and 120 min in adding 100 μl of acetonitrile at 0 °C. A positive control was treated in the same conditions. All samples were analyzed by UHPLC coupled to a mass spectrometer (Shimadzu LC-MS 8030).

The next series addresses T2, Lck kinase (Homo sapiens, UniProt P06239).
T2 construct: Eurofins (contract assay)
Put plainly: enzyme inhibition. To be noted: range given for five enzymes together, below significance. The class given is biochemical. As to the method: as §1

The target in series [2] is T3, MAO-A from human placenta (Homo sapiens, UniProt P21397).
T3 construct: MAO-A from human placenta; tissue Eurofins (contract assay); host or cells: human placenta
Put plainly: enzyme inhibition. In kind it is biochemical. To be noted: range given for five enzymes together, below significance. As to the method: as §1

In the next series the target is T4, PDE3A (Homo sapiens, UniProt Q14432).
T4 construct: Eurofins (contract assay)
Put plainly: enzyme inhibition. The class given is biochemical. To be noted: range given for five enzymes together, below significance. As to the method:
as §1

In a further series the target is T5, PDE4D2 (Homo sapiens, UniProt Q08499).
T5 construct: Eurofins (contract assay)
Put plainly: enzyme inhibition. In kind it is biochemical. As to the method: as §1

The next series concerns the target T6, acetylcholinesterase (Homo sapiens, UniProt P22303).
T6 construct: Eurofins (contract assay)
Put plainly: enzyme inhibition. In kind it is biochemical. To be noted: range given for five enzymes together, below significance. The method, then:
as §1

In the next series the target is T7, human recombinant COX(1) (Homo sapiens, UniProt P23219).
T7 construct: Eurofins (contract assay)
Put plainly: enzyme inhibition. The class given is biochemical. To be noted: range given for five enzymes together, below significance. As to the method:
as §1

For the next series, the target named is hERG (Homo sapiens, UniProt Q12809). Put plainly: hERG inhibition, patch clamp method. The class given is cell-based.
A further series deals with T8, CYP 1A2 (Homo sapiens, UniProt P05177).
T8 construct: phosphate buffer containing human liver microsomes (0.2 mg/ml); from tissue; host or cells: human liver microsomes
Put plainly: cytochrome inhibition, human liver microsomes. The class given is in vitro ADME. The method, then: (§2) Cytochrome inhibition by LIT-001 was studied as follows. A stock solution of LIT-001 at 10 mM in DMSO was prepared and stored at 4 °C. Solutions containing the cytochrome substrates and control inhibitors or LIT-001 were prepared. 2 μl of substrate-inhibitor solutions were mixed with 176 μl of phosphate buffer containing human liver microsomes (0.2 mg/ml), 1 mM of NADPH and 3 mM of MgCl2. Height concentrations were tested: 0.03; 0.1; 0.3; 1; 3; 10; 30 and 100 μM. The reaction was initiated by addition of the co-factor after 5 min of incubation at 37 °C. After one hour of incubation, 200 μl of acetonitrile were added to stop enzymatic reactions and solubilize the products. Different control inhibitors were used and supernatants were analyzed by LC-MS/MS (UHPLC separation; Shimadzu LC-MS 8030). • Furafylline (CYP 1A2 inhibitor): 0.03; 0.1; 0.3; 1; 3; 10; 30 and 100 μM • Sulfaphenazole (CYP 2C9 inhibitor): 0.03; 0.1; 0.3; 1; 3; 10; 30 and 100 μM • Tranylcypromine (CYP 2C19 inhibitor): 0.03; 0.1; 0.3; 1; 3; 10; 30 and 100 μM • Quinidine (CYP […] inhibitor): 0.003; 0.01; 0.1; 0.5; 1; 5; 10 and 50 μM • Kétoconazole (CYP 3A4 inhibitor): 0.003; 0.01; 0.1; 0.5; 1; 5; 10 and 50 μM
In general terms: Liver microsomes are a subcellular fraction often used to study metabolism.

The target in a further series is T9, CYP 2C19 (Homo sapiens, UniProt P33261).
T9 construct: phosphate buffer containing human liver microsomes (0.2 mg/ml); from tissue; host or cells: human liver microsomes
Put plainly: cytochrome inhibition, human liver microsomes. In kind it is in vitro ADME. The method, then:
as §2

The target in the next series is T10, CYP 2C9 (Homo sapiens, UniProt P11712).
T10 construct: phosphate buffer containing human liver microsomes (0.2 mg/ml); from tissue; host or cells: human liver microsomes
Put plainly: cytochrome inhibition, human liver microsomes. The class given is in vitro ADME. To be noted: 0.03-100 μM. The method, then:
as §2

Another series concerns the target T11, CYP 2D6 (Homo sapiens, UniProt P10635).
T11 construct: phosphate buffer containing human liver microsomes (0.2 mg/ml); from tissue; host or cells: human liver microsomes
Put plainly: cytochrome inhibition, human liver microsomes. In kind it is in vitro ADME. The following applies: 0.03-100 μM. The method, then: as §2

Another series has as its target T12, CYP 3A4 (Homo sapiens, UniProt P08684).
T12 construct: phosphate buffer containing human liver microsomes (0.2 mg/ml); from tissue; host or cells: human liver microsomes
Put plainly: cytochrome inhibition, human liver microsomes. The class given is in vitro ADME. As to the method: as §2

The subject of another series is hOTR. More on the design: method as in PMID 30199637. The following applies: human receptor, cited from earlier work.

hERG, sequence (Q12809 whole entry): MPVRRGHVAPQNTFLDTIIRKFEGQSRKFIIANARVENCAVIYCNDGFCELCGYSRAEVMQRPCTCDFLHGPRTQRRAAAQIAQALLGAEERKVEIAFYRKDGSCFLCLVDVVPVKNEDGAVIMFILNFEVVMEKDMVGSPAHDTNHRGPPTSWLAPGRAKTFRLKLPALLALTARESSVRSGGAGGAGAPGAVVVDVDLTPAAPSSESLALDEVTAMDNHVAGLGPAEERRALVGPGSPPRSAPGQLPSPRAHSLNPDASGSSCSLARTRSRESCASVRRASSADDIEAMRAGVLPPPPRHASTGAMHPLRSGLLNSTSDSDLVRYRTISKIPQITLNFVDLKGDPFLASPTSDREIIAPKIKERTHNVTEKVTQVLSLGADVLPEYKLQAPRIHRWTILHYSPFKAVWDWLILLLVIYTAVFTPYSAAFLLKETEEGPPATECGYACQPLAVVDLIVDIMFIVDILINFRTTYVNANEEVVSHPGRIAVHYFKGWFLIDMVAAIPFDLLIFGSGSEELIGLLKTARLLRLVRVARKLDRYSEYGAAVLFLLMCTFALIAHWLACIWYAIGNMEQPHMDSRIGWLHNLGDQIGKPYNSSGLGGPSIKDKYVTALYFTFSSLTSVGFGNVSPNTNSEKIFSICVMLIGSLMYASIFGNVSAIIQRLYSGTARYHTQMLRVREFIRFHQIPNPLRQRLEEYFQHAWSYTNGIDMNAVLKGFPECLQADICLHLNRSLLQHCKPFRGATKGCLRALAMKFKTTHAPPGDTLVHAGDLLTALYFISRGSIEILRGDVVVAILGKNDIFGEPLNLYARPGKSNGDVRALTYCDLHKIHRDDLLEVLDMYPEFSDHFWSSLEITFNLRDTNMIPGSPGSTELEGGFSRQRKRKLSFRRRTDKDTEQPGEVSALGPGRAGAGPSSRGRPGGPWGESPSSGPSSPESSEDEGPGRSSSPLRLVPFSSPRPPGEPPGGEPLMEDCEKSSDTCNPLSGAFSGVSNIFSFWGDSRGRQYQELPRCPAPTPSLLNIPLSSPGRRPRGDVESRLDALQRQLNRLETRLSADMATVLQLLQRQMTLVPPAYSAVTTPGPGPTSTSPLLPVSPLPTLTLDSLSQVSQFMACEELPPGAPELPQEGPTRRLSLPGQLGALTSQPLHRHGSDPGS
T1 sequence (P35354 18-604): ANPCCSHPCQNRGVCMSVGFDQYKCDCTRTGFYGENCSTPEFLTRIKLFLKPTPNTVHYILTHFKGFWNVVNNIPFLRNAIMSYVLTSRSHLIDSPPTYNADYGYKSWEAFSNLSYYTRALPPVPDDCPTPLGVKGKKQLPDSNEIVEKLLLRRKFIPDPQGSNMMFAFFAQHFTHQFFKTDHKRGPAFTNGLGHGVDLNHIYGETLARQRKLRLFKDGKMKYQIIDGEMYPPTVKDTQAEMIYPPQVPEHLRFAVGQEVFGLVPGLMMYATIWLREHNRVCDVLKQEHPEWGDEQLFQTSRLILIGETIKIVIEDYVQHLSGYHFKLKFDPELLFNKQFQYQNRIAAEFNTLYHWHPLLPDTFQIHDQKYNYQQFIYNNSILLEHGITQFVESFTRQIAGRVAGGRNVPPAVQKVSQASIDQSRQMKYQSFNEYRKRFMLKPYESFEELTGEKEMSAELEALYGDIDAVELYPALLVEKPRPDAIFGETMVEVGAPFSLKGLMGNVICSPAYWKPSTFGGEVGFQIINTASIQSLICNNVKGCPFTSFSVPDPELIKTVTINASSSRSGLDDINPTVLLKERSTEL
T3 sequence (P21397 whole entry): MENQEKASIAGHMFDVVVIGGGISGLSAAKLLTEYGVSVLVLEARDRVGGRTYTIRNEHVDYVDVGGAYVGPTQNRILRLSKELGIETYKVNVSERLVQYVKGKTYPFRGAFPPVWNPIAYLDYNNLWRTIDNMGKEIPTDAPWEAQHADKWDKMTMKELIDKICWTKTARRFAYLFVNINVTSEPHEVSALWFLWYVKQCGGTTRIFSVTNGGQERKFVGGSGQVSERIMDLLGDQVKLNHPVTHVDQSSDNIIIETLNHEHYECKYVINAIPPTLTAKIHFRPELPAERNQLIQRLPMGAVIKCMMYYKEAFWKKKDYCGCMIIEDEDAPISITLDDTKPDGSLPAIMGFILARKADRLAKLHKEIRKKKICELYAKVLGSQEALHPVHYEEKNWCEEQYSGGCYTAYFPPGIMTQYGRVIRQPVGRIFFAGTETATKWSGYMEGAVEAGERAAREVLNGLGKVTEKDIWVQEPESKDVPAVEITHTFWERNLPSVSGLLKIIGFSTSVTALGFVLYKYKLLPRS
T10 sequence (P11712 whole entry): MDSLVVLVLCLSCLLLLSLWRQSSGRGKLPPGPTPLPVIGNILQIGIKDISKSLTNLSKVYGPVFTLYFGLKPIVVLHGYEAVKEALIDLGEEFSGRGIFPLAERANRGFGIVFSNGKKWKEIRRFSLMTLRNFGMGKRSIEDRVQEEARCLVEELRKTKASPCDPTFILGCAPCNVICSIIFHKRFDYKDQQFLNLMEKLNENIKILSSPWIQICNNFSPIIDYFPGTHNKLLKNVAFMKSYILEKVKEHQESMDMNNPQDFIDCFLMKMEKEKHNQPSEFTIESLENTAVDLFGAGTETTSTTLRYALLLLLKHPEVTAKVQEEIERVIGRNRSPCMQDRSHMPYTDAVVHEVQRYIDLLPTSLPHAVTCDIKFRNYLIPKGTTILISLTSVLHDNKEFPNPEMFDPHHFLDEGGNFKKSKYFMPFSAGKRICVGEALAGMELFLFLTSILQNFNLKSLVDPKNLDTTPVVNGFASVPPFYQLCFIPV
T9 sequence (P33261 whole entry): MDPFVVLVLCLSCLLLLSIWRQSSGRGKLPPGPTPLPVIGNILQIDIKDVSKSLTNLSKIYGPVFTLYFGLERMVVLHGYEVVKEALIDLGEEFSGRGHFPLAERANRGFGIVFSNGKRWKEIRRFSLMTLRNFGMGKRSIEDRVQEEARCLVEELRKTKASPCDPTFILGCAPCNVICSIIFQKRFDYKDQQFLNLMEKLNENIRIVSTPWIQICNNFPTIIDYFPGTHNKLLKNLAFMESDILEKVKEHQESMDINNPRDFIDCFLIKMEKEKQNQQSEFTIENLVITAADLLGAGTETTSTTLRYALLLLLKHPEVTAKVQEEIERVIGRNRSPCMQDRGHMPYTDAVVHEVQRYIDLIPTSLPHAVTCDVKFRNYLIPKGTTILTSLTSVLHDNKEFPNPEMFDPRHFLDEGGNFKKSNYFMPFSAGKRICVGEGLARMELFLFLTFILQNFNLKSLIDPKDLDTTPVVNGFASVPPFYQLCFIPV
T11 sequence (P10635 whole entry): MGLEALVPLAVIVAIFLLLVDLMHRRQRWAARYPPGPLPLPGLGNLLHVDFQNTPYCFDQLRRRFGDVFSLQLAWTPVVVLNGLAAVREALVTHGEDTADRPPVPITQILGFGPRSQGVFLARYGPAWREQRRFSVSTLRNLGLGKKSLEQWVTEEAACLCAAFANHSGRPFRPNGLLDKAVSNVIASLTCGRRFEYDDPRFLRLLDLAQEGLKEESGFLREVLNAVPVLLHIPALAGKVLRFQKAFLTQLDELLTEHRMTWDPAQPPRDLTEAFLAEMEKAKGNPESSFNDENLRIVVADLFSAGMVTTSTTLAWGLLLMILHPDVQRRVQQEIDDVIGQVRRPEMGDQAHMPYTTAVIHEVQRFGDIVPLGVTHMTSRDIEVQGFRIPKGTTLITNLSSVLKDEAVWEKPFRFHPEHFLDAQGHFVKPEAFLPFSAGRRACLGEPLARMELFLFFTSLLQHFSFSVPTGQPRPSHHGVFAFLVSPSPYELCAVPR
T12 sequence (P08684 whole entry): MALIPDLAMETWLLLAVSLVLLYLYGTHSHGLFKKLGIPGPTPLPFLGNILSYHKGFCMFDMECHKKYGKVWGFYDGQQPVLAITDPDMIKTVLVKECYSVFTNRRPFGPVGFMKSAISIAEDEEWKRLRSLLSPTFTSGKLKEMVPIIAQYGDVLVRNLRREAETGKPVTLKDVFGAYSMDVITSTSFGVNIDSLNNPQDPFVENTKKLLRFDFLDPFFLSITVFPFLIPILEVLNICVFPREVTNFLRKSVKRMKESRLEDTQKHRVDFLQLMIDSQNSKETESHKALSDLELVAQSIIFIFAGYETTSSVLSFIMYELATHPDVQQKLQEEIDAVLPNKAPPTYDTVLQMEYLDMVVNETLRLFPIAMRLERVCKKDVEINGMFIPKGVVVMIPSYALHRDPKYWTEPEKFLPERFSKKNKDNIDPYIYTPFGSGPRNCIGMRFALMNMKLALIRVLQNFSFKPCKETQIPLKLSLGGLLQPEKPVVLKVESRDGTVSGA
T7 sequence (P23219 24-599): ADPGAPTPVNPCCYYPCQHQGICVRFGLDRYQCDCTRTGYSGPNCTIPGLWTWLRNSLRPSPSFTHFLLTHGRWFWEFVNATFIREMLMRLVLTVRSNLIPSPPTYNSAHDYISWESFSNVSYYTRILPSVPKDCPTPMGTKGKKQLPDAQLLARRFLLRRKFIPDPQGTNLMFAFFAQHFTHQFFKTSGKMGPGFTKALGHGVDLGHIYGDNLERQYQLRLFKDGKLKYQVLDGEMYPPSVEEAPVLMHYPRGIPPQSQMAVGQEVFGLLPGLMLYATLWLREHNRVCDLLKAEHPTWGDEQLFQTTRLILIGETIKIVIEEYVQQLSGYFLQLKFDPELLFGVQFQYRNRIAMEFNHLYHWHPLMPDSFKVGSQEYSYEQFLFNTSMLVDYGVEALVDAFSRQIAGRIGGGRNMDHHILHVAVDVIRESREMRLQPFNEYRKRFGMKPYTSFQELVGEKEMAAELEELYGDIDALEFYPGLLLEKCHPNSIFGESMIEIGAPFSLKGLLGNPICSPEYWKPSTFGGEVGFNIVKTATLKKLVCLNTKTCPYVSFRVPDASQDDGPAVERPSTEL

Turning to `Cc1cc(C(=O)N2Cc3cnn(C)c3Nc3ccccc32)ccc1CNC(=O)N1CCC[C@H]1C(=S)N(C)C` [LIT-001], the thermodynamic solubility at 24 h in series [1] (pH 7.4, aqueous buffer, thermodynamic from solid) worked out at 530 ± 30 µM; in series [1] (pH 7.4), 340 µg/mL. The inhibition at 5 µM on COX(2) was 24.6%; against Lck kinase it was 6.4 to 9.5%; in series [2], 6.4 to 9.5%; against PDE3A it was 6.4 to 9.5%; against PDE4D2 it was 23.1%; against acetylcholinesterase, 6.4 to 9.5%. Besides, the inhibition at 5 µM on human recombinant COX(1) lay within 6.4 to 9.5%. Also, the inhibition at 1 µM against hERG (1 μM) is 9.5%. On hERG (10 μM), this compound registered an inhibition at 10 µM of 10.6%. Also, the results for the IC50 against CYP 1A2, at CYP 2C19 and against CYP 3A4 were 51 µM, 21 µM and 11 µM, respectively. The “interaction with CYP 2C9” value on CYP 2C9 is reported as “did not interact”. Besides, the “interaction with CYP 2D6” value on CYP 2D6 is on record as “did not interact”. In addition, the EC50 in the series on hOTR (agonist) was 0.025 µM. Moreover, the “Emax (hOTR)” value in the series with hOTR (efficacy) is 96%.
